Measurements as given in publication PMC11818225, “Multifaceted Sulfonamide-Derived Thiosemicarbazones: Combining Metal Chelation and Carbonic Anhydrases Inhibition in Anticancer Therapy” (International Journal of Molecular Sciences, 2025).
Entries after “also recorded” stand apart in the source; their conditions may differ. Like-named read-outs stand apart in the source and are kept apart here.

Columns and labels:
T-47D (breast) = test: Antiproliferative SBR assay (NCI protocol), T-47D; type: cell-based, human; conditions: Homo sapiens, T47D; 48 h exposure, n = 3, mean ± SD; multidrug-resistant line
From the text: (§1) The latter two represent multidrug-resistant cell lines.

[1] = system: SW1573 (non-small cell lung)
Protocol: The potential antiproliferative activity of sulfonamides synthesized in this study was evaluated in vitro using the SBR assay, following the US NCI protocol. A panel of six tumor cell lines was employed: A549 (non-small cell lung), HBL-100 (breast), HeLa (cervix), SW1573 (non-small cell lung), T-47D (breast), and WiDr (colon). The latter two represent multidrug-resistant cell lines.
Cells were maintained in culture in 60 mm cell culture dishes in growth medium (10 mL) and passaged twice weekly.
The antiproliferative activity of compounds was tested using our implementation of the protocol of the National Cancer Institute (NCI) of the USA. The following seeding densities (cells per well) were used: 2500 (A549, HBL-100, HeLa, and SW1573) and 5000 (T-47D and WiDr). Stock solutions of inhibitors (40 mM) were prepared in pure DMSO (400 times the maximum test concentration).

WiDr (colon) = test: Antiproliferative SBR assay (NCI protocol), WiDr; type: cell-based, human; conditions: Homo sapiens, WiDr; 48 h exposure, n = 3, mean ± SD; multidrug-resistant line
From the text: as §1

[2] = system: A549 (non-small cell lung); test: Antiproliferative SBR assay (NCI protocol), A549; type: cell-based, human; conditions: Homo sapiens, A549; 48 h exposure, n = 3, mean ± SD
From the text: as §1

HeLa (cervix) = test: Antiproliferative SBR assay (NCI protocol), HeLa; type: cell-based, human; conditions: Homo sapiens, HeLa; 48 h exposure, n = 3, mean ± SD
From the text: as §1

SW1573 cells = test: Label-free continuous live cell imaging (holotomographic 3D microscopy); type: cell-based, human; conditions: 20 μM, 20 h
Protocol: Live imaging allows researchers to observe progressive cytostatic effects or cell death of treated cells, enabling the identification of several apoptotic hallmarks. In order to characterize the phenotypic effects of the compounds 4a and 5b on cancer cells, the evolution of the culture was monitored every 3 min using label-free holotomographic 3D microscopy. SW1573 cells were exposed to 4a and 5b at a concentration of 20 μM for 20 h (Supplementary Material, videos S1–S3). Untreated SW1573 cells (control) moved freely and divided throughout the experimental time frame.
The CX-A imaging platform microscope (Nanolive SA, Lausanne, Switzerland) was used to measure refractive indices, creating a holotomographic 3D image of the cells. SW1573 cells were seeded onto 35 mm cell culture imaging dishes (IBIDI GmbH, Gräfelfing, Germany) at a density of 50.000 cells/well. On the next day, treated cells were exposed to the test compounds right before the acquisition of the images. Image data were transferred to FIJI software v2.9.0 (NIH, USA) for image analysis. EVE software v2.2.1.2162 (Nanolive S.A., Tolochenaz, Switzerland)) was used for the analysis of the refractive indices and calculation of the phenotypic parameters.

HBL-100 (breast) = test: Antiproliferative SBR assay (NCI protocol), HBL-100; type: cell-based, human; conditions: Homo sapiens, HBL-100; 48 h exposure, n = 3, mean ± SD
From the text: as §1

[3] = system: A549, HBL-100, HeLa, SW1573, T-47D, WiDr; test: Antiproliferative SBR assay, panel of six tumor cell lines (summary statements); type: cell-based; conditions: Homo sapiens
From the text: as §1

human CA II = human CA II (Homo sapiens, UniProt P00918); test: Stopped-flow CO2 hydrase assay, CA II
human CA IX = human CA IX (Homo sapiens, UniProt Q16790); test: Stopped-flow CO2 hydrase assay, CA IX; conditions: for Selectivity Ratio I/IX: Ki CA I / Ki CA IX; for Selectivity Ratio II/IX: Ki CA II / Ki CA IX
human CA XII = human CA XII (Homo sapiens, UniProt O43570); test: Stopped-flow CO2 hydrase assay, CA XII; conditions: for Selectivity Ratio I/XII: Ki CA I / Ki CA XII; for Selectivity Ratio II/XII: Ki CA II / Ki CA XII
human CA I = human CA I (Homo sapiens, UniProt P00915); test: Stopped-flow CO2 hydrase assay, CA I
[4] = Metal complexation assay by UV-Vis spectroscopy; type: physicochemical; conditions: DMSO, 25 °C
Protocol: The ability of 5b, as a model compound, to complex metal cations associated with tumorigenesis (Na^+, K^+, Fe^2+, Fe^3+, Zn^2+, and Cu^2+) was analyzed using UV–Vis spectroscopy. To investigate this, UV–Vis spectra of solutions with varying ratios of 5b to metal chlorides (1:0, 4:1, 2:1, 1:1, 1:2, 1:5) were recorded. Additionally, a 1:2 ligand-to-metal spectrum was obtained after 72 h of incubation to account for potential slow complexation. […] For ZnCl2, only a weak effect was observed after incubation, and no significant changes were detected without incubation, regardless of the ligand-to-Zn^2+ ratio (Figure 6C).
The complexation of 5b with different metal chlorides (NaCl, KCl, FeCl2, FeCl3, ZnCl2, and CuCl2) was investigated using UV–Vis spectroscopy (Jasco V-360). The stock solutions of the salts (10^−2 M) and the ligand (2.5 mM) were prepared in pure DMSO and sonicated when necessary. To 20 µL of a 2.5 mM solution of 5b were added different aliquots of the metal chlorides solutions up to a total volume of 2 mL in quartz cuvettes. The following ligand–metal ratios were used: 1:0.25, 1:0.5, 1:1, 1:2, 1:5, and 1:10. The absorbance was monitored at 25 °C in the range 280–440 nm, either with or without incubation. A blank solution without 5b was also prepared for each concentration of the salt, and its spectrum was subtracted from the ligand–salt spectrum.

[5] = range over six tumor cell lines, read-out: GI50 range across all tested cell lines
[6] = read-out: GI50 in five out of six cell lines

Chain of human CA XII (O43570 25-354): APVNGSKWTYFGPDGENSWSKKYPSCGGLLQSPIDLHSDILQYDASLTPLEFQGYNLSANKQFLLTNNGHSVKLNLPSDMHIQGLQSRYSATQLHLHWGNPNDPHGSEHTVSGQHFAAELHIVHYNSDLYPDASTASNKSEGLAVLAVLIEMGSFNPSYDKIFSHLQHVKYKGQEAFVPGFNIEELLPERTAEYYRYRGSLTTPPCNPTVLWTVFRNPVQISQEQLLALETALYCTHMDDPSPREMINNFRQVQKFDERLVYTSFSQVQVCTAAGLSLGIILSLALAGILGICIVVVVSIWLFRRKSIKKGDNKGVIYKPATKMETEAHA
Chain of human CA I (P00915 whole entry): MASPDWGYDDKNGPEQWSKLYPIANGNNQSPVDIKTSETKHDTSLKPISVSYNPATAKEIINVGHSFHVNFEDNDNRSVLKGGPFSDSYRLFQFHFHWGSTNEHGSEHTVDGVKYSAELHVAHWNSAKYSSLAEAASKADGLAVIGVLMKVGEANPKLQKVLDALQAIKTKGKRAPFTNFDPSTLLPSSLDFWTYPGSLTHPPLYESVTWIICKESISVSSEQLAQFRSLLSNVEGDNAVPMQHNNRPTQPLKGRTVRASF

| Structure (SMILES) | GI50 (T-47D (breast)) [µM] | GI50 [1] [µM] | GI50 (WiDr (colon)) [µM] | GI50 [2] [µM] | GI50 (HeLa (cervix)) [µM] | Phenotypic effects on cancer cells (SW1573 cells) | GI50 (HBL-100 (breast)) [µM] | GI50 [3, 5] [µM] | Ki (human CA II) [µM] | Ki (human CA IX) [µM] | Selectivity Ratio I/IX (human CA IX) | Selectivity Ratio II/IX (human CA IX) | Ki (human CA XII) [µM] | Selectivity Ratio I/XII (human CA XII) | Ki (human CA I) [µM] | Selectivity Ratio II/XII (human CA XII) | GI50 [3, 6] [µM] | other results |
| --- | --- | --- | --- | --- | --- | --- | --- | --- | --- | --- | --- | --- | --- | --- | --- | --- | --- | --- |
| NS(=O)(=O)c1ccc(NC(=S)N/N=C/c2ccccc2)cc1 [Compound 4a, 1-Phenylmethylene-4-(4′-sulfonamidophenyl)-3-thiosemicarbazone] | 2.6 ± 0.1 | 2.9 ± 1.4 | 4.5 ± 1.4 | 5.1 ± 3.7 | 2.3 ± 0.2 | cell division was retarded and apoptotic features were observed in some cells | 3 ± 1.6 | 2.3 to 5.1 |  |  |  |  |  |  |  |  |  |  |
| NS(=O)(=O)c1ccc(CCNC(=S)N/N=C/c2ccc(Cl)cc2)cc1 [Compound 4o, 1-(4′-Chlorophenylmethylene)-4-[2″-(4‴-sulfonamido)pheny]ethyl-3-thiosemicarbazone] | > 100 | 73 ± 38 | > 100 | 62 ± 6 | 45 ± 16 |  | 76 ± 32 |  | 0.773 | 0.408 | 15.2 | 1.9 | 0.143 | 43.4 | 6.22 |  |  |  |
| NS(=O)(=O)c1ccc(CCNC(=S)N/N=C/c2ccc(Br)cc2)cc1 [Compound 4p, 1-(4′-Bromophenylmethylene)-4-[2″-(4‴-sulfonamido)phenyl]ethyl-3-thiosemicarbazone] | 37 ± 8 | 53 ± 17 | 58 ± 9 | 21 ± 4 | 31 ± 9 |  | 42 ± 8 |  | 0.813 | 0.499 | 12.2 | 1.6 | 0.123 | 49.5 | 6.09 | 6.6 |  |  |
| NS(=O)(=O)c1ccc(NC(=S)N/N=C/c2ccccn2)cc1 [Compound 5a, 1-(Pyridin-2′-ylmethylene)-4-(4″-sulfonamidophenyl)-3-thiosemicarbazone] | 5.7 ± 2.1 | 4.2 ± 0.1 | 3.8 ± 0.3 | 18 ± 2 | 5.2 ± 0.3 |  | 5.2 ± 2.2 |  |  |  |  |  |  |  |  |  | < 10 |  |
| NS(=O)(=O)c1cccc(NC(=S)N/N=C/c2ccccn2)c1 [Compound 5b, 1-(Pyridin-2′-ylmethylene)-4-(3″-sulfonamidophenyl)-3-thiosemicarbazone] | 5.3 ± 0.7 | 7.1 ± 0.4 | 4.5 ± 0.6 | 10 ± 2 | 5.8 ± 0.4 | cell division was retarded and apoptotic features were observed in some cells; also recorded: delayed tumor cell division and features indicative of apoptosis | 7.8 ± 2 | 4.5 to 10 | 0.0025 | 0.0049 | 109.8 | 0.49 | 0.0056 | 96.1 | 0.538 |  | < 10 | Chelation of Cu2+ ([4]; CuCl2 titration): efficiently chelated; also recorded: efficient ligand for chelating; also recorded: effective chelation; Chelation of Fe2+ ([4]; FeCl2 titration): efficiently chelated; also recorded: to a lesser extent; also recorded: effective chelation; Chelation of Fe3+ ([4]; FeCl3 titration): efficiently chelated; also recorded: to a lesser extent; Chelation of K+ ([4]; KCl titration): does not chelate; Chelation of Na+ ([4]; NaCl titration): does not chelate; Chelation of Zn2+ ([4]; ZnCl2 titration): notably weaker |
| NS(=O)(=O)c1ccc(CCNC(=S)N/N=C/c2ccccn2)cc1 [Compound 5c, 1-(Pyridin-2′-ylmethylene)-4-[2″-(4‴-sulfonamidophenyl)]ethyl-3-thiosemicarbazone] | > 100 | > 100 | > 100 | 37 ± 11 | > 100 |  | > 100 |  | 0.0839 | 0.0285 | 9.5 | 2.9 | 0.0093 | 29.0 | 0.27 | 9.0 |  |  |
